Measured values published in patent US9463194B2, “Methods of treating patients co-infected with HIV and tuberculosis” (priority 2014, dated 2016).
≈ marks a conversion by molar mass, not a printed value. Entries after “also recorded” stand apart in the source; their conditions may differ.

Columns and labels:
[1] = RFB metabolite; cited from earlier work
[2] = Steady-state pharmacokinetic interaction study of EVG/COBI Composition plus evening COBI plus RFB QOD in healthy volunteers; format: in vivo, human
Description: “Ctau” or “Ctrough” is a pharmacokinetic (PK) parameter that refers to the concentration of the drug at the end of the dosing interval. This parameter is obtained by direct measurement of the drug concentrations in a plasma sample collected from the study subject at the end of the dosing interval (i.e., 24 hours post-dose) using a validated high-performance liquid chromatography/tandem mass spectrometry (HPLC/MS/MS) bioanalytical assay.
This study evaluated the steady-state pharmacokinetics and safety of the coadministered Composition and an additional dose of COBI in combination with RFB QOD.
Lack of PK alteration bounds for 90% confidence intervals (CI) about the geometric mean ratio (GMR) (coadministration: alone) were 70-143% for EVG and RFB.

[3] = in vivo; cited from earlier work
wild type HIV virus = assay: In vitro assay of concentration-dependent inhibition of wild type HIV virus (IC95); format: cell-based
Excerpt: “IC95” or “EC95” refers to the inhibitory concentration required to achieve 95% of the maximum desired effect, which in the case of EVG is the inhibition of the HIV virus. This term is obtained using an in vitro assay evaluating the concentration-dependent inhibition of wild type HIV virus.

[4] = ritonavir-boosted EVG + RFB QOD; cited from earlier work
[5] = coadministration (Composition QD + COBI 150 mg evening + RFB 150 mg QOD) : alone, healthy volunteers, n = 14, steady state

Compound: 25-O-desacetylrifabutin
- contribution to total antimycobacterial activity [1]: ~10%
- exposure higher versus RFB alone ([2]; RFB metabolite, EVG QD + COBI BID + RFB QOD versus RFB alone): ~12 fold

Compound: CC(C)c1nc(CN(C)C(=O)N[C@@H](CCN2CCOCC2)C(=O)N[C@H](CC[C@H](Cc2ccccc2)NC(=O)OCc2cncs2)Cc2ccccc2)cs1 [COBI]
- exposures upon coadministration with RFB (previous research) [3]: substantially lower
- levels lower by 24 hrs post dose when co-administered with RFB [3]: 70%

Compound: COc1cc2c(cc1Cc1cccc(Cl)c1F)c(=O)c(C(=O)O)cn2[C@H](CO)C(C)C [EVG, elvitegravir]
- exposures upon coadministration with RFB (previous research) [3]: substantially lower
- levels lower by 24 hrs post dose when co-administered with RFB [3]: 70%
- IC95 (wild type HIV virus): 0.045 µg/mL (≈ 0.1 µM)

Compound: CO[C@H]1/C=C/O[C@@]2(C)Oc3c(C)c(O)c4c(c3C2=O)C2=NC3(CCN(CC(C)C)CC3)NC2=C(NC(=O)/C(C)=C\C=C\[C@H](C)[C@H](O)[C@@H](C)[C@@H](O)[C@@H](C)[C@H](OC(C)=O)[C@@H]1C)C4=O [RFB, 1′,4-didehydro-1-deoxy-1,4-dihydro-5′-(2-methylpropyl)-1-oxorifamycin XIV]
- exposures versus reference treatment (in words) ([2]; Composition QD + COBI 150 mg evening + RFB 150 mg QOD, no-effect boundary 70-143%): within the predefined no-effect boundary; also recorded: clinically equivalent exposures
- Ctau higher versus reference treatments ([2]; EVG QD + COBI BID + RFB QOD versus reference treatment): 41%
- AUCtau % GMR (90% CI) [2, 5]: 114.44 (100.27, 130.62) %
- Cmax % GMR (90% CI) [2, 5]: 116.26 (101.44, 133.23) %
- Ctau % GMR (90% CI) [2, 5]: 140.76 (123.76, 160.09) %

Compound: CC(C)c1nc(CN(C)C(=O)N[C@H](C(=O)N[C@@H](Cc2ccccc2)C[C@H](O)[C@H](Cc2ccccc2)NC(=O)OCc2cncs2)C(C)C)cs1 [ritonavir]
- exposure when co-administered with RFB QOD (ritonavir boosting, in words) [4]: maintained through the end of the dosing interval
